The subject of assay [1] is SKCO1. The experiment in a line: Growth inhibition, CyQUANT Direct Cell Proliferation Assay, SKCO1. The following applies: Homo sapiens, SK-CO-1; SKCO1 cells, 120 to 168 hours. In kind it is cell-based. How it is done:
(§1) SKCO1, LS180, and LS174T cell lines were purchased from ATCC. CW2 cell line was purchased from Riken. GP2D cell line was purchased from Sigma/ECACC. All cell lines were cultured in manufacturer's recommended media at 37° C., 5% CO2. Briefly, cells were suspended in 200 μL of media and seeded at 300 to 1,800 cells per well in tissue culture treated 96-well plates with black walls and clear bottom. Plates were incubated overnight and initial (TO) read was performed the following day using CyQUANT Direct Cell Proliferation Assay Kit (Thermo Fisher Scientific) according to manufacturer's protocol. All compounds were solubilized in DMSO and prepared at 3-fold serial dilution, using 9 points starting at 30 μM as highest concentration, administered to cells and incubated for 120 to 168 hours, at which point CyQUANT assay measurement was performed using Acumen Cellista instrument (Ex/Em 480/520 nm). Media-only wells were used as blank, and 0.3% DMSO was used as DMSO-treated cell control. Growth inhibition (percent response) was calculated using the following formula in Excel: “=if ([Compound treated Day N]>[Untreated Day 0, AVG], ([Compound treated Day N]− [Untreated Day 0, AVG])/([Untreated Day N]−[Untreated Day 0, AVG])*100, ([Compound Treated Day N]−[Untreated Day 0, AVG])/([Untreated Day 0, AVG])*100)”. GI50 is the response corresponding to the 50% of untreated control.
(§2) GI50 data are reported in Tables 4a, 4b, 4c, 4d, and 4e for compounds in Table 1. In Tables 4a, 4b, 4c, 4d, and 4e below, According to the code, A represents a GI50 value of ≤0.1 μM, B represents a GI50 value >0.1 μM and ≤1 μM, C represents an GI50 value >1 μM.

For assay [2], the target named is CRBN/DDB1 (Homo sapiens, UniProt Q96SW2). The experiment in a line: HTRF binding assay (displacement of Cy5-thalidomide probe from CRBN/DDB1). The following applies: CRBN/DDB1 2.5 nM, Cy5-Thalidomide 100 nM, 30 min; geometric mean; read-out: HTRF_Thali_Disp_DR_geo_IC50. In outline: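 HTRF displacement of Cy5-thalidomide probe (100 nM) from His-tagged CRBN/DDB1 (2.5 nM) with anti-His terbium cryptate, in HEPES/NaCl/TCEP/EDTA/Tween20 buffer; 10-point 1:3 series, 30 min at ambient temperature. 665/620 nm ratio fitted 4-parameter logistic for IC50; Ki via Cheng-Prusoff.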

Assay [3] has as its target T1, CK1α (Homo sapiens, UniProt P48729+Q96SW2).
T1 construct: HEK293 clonal lines with CRISPR KI HiBiT tag on CSNK1A1; host or cells: HEK293 clonal line, CRISPR knock-in HiBiT at the CSNK1A1 locus, stably expressing LgBiT
Nature of the assay: CK1α NanoBit Assay (HiBiT-tagged CSNK1A1 in HEK293 cells, luminescence). In kind it is cell-based. The following applies: 24 h. In outline:
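HEK293 with endogenous HiBiT-tagged CSNK1A1 and stable LgBiT, live-cell Endurazine substrate; compound added at 10 or 30 μM final top concentration after 16 h plating, then 24 h at 37 °C. Luminescence normalised to plate controls; DC50 by 3-parameter logistic fit, hill slope 1.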

Assay [4] deals with CW2. The experiment in a line: Growth inhibition, CyQUANT Direct Cell Proliferation Assay, CW2. In kind it is cell-based. The following applies: Homo sapiens, CW-2; CW2 cells, 120 to 168 hours. The protocol:
as §1, §2

Assay [5] has as its system LS174T. Nature of the assay: Growth inhibition, CyQUANT Direct Cell Proliferation Assay, LS174T. The assay is classed as cell-based. The following applies: Homo sapiens; LS174T cells, 120 to 168 hours. How it is done:
as §1, §2

For assay [6], the system named is LS180. The experiment in a line: Growth inhibition, CyQUANT Direct Cell Proliferation Assay, LS180. The assay is classed as cell-based. As to conditions: Homo sapiens; LS180 cells, 120 to 168 hours. How it is done: as §1, §2
Assay [7] deals with GP2D. The experiment in a line: Growth inhibition, CyQUANT Direct Cell Proliferation Assay, GP2D. The assay is classed as cell-based. As to conditions: GP2D cells, 120 to 168 hours. The protocol: as §1, §2

Where only a bound is given, the exact number is not on record here.

CRBN/DDB1, sequence (Q96SW2 whole entry): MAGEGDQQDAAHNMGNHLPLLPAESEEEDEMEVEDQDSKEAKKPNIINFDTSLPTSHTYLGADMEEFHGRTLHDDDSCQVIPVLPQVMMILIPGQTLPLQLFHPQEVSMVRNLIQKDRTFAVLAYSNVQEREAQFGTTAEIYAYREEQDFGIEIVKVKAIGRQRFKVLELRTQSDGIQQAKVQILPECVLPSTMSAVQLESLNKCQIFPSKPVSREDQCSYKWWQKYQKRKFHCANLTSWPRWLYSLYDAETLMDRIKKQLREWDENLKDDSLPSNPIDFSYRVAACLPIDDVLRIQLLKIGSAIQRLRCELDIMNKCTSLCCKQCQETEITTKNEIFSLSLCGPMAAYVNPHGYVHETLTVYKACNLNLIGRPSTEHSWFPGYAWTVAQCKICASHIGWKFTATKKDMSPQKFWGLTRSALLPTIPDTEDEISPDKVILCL
CRBN/DDB1, sequence (Q16531 whole entry partner): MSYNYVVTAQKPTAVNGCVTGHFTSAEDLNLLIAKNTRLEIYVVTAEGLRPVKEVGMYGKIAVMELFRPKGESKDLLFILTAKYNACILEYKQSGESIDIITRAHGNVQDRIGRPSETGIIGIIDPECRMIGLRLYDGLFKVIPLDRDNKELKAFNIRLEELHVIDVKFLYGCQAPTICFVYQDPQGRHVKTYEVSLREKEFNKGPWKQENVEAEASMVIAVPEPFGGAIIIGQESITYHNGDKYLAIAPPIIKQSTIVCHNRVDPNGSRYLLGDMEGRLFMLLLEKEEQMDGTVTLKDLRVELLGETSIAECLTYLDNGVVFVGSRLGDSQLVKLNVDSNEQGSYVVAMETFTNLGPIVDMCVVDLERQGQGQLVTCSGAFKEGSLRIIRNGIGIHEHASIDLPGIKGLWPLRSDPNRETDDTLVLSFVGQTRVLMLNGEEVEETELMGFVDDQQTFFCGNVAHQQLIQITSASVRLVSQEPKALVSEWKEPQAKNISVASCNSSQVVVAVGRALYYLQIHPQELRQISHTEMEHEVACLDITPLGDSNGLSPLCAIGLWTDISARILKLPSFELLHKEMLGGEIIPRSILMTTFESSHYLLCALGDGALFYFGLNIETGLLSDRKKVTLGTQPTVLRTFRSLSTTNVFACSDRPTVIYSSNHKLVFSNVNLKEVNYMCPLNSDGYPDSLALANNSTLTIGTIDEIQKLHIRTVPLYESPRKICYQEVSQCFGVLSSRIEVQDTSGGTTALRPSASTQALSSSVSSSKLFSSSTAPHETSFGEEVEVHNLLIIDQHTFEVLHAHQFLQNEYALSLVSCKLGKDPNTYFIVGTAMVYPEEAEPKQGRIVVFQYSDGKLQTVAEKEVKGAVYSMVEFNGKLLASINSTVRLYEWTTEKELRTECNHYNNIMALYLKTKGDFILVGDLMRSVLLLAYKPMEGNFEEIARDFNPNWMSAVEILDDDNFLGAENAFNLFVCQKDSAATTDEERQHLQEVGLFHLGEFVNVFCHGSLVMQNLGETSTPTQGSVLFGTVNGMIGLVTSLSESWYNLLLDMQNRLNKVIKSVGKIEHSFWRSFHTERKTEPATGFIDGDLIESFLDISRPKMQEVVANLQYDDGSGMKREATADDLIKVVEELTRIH
T1 sequence (P48729 whole entry): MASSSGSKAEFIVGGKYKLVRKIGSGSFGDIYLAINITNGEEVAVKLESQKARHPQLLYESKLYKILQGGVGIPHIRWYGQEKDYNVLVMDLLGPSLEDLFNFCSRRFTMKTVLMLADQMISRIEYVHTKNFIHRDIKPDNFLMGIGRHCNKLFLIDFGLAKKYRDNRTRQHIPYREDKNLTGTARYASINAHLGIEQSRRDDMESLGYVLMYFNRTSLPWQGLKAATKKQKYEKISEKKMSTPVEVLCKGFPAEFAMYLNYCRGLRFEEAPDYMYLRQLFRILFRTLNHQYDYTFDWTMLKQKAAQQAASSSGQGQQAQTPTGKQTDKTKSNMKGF
T1 sequence (Q96SW2 whole entry): as the sequence (Q96SW2 whole entry) above
T1 sequence (Q16531 whole entry partner): as the sequence (Q16531 whole entry partner) above

For `Cc1ccc(N2CCN(c3ccc4c(c3)CN(C3CCC(=O)NC3=O)C4=O)C2=O)cn1` (centres unmarked) [Compound 104, 3-(5-(3-(6-methylpyridin-3-yl)-2-oxoimidazolidin-1-yl)-1-oxoisoindolin-2-yl)piperidine-2,6-dione], the GI50 in assay [1], in assay [4], in assay [5], in assay [6] and in assay [7] was 0.1 to 1 µM in each case. The IC50 in assay [2] fell in the range of 0.1 to 1 µM. Further, the DC50 in assay [3] is no more than 0.1 µM.
On to `Cc1ccc(N2CCN(c3ccc4c(c3)CN(C3CCC(=O)NC3=O)C4=O)C2=O)cc1` (centres unmarked) [Compound 111, 3-(1-oxo-5-(2-oxo-3-(p-tolyl)imidazolidin-1-yl)isoindolin-2-yl) piperidine-2,6-dione], for which the GI50 in assay [1] is no more than 0.1 µM; in assay [4] it was no more than 0.1 µM; in assay [5], 0.1 to 1 µM; in assay [6], 0.1 to 1 µM; in assay [7], 0.1 to 1 µM. The IC50 in assay [2] fell in the range of 0.1 to 1 µM. This compound also displayed a DC50 in assay [3] of no more than 0.1 µM.
With `O=C1CCC(N2Cc3cc(N4CCN(c5ccc(C6CC6)cc5)C4=O)ccc3C2=O)C(=O)N1` (centres unmarked) [Compound 123, 3-(5-(3-(4-cyclopropylphenyl)-2-oxoimidazolidin-1-yl)-1-oxoisoindolin-2-yl)piperidine-2,6-dione], the 50% growth inhibitory concentration (GI50) in assay [1] was no more than 0.1 µM; in assay [4], no more than 0.1 µM; in assay [5], no more than 0.1 µM; in assay [6], 0.1 to 1 µM; in assay [7] it was 0.1 to 1 µM. In addition, in assay [2], the IC50 was greater than 1 µM. The DC50 in assay [3] was no more than 0.1 µM.
As for `O=C1CCC(N2Cc3cc(N4CCN(c5ccc(C(F)F)nc5)C4=O)ccc3C2=O)C(=O)N1` (centres unmarked) [Compound 124, 3-(5-(3-(6-(difluoromethyl)pyridin-3-yl)-2-oxoimidazolidin-1-yl)-1-oxoisoindolin-2-yl)piperidine-2,6-dione], the concentration for 50% growth inhibition (GI50) in assay [1] was 0.1 to 1 µM; in assay [4], no more than 0.1 µM; in assay [5] it was no more than 0.1 µM; in assay [6], 0.1 to 1 µM; in assay [7], 0.1 to 1 µM. For the same compound, the IC50 in assay [2] fell in the range of 0.1 to 1 µM. The DC50 in assay [3] is no more than 0.1 µM.
Consider `O=C1CCC(N2Cc3cc(N4CCN(c5ccc(C(F)(F)F)nc5)C4=O)ccc3C2=O)C(=O)N1` (centres unmarked) [Compound 126, 3-(1-oxo-5-(2-oxo-3-(6-(trifluoromethyl)pyridin-3-yl)imidazolidin-1-yl)isoindolin-2-yl)piperidine-2,6-dione], for which the GI50 in assay [1] was 0.1 to 1 µM; in assay [4] it was no more than 0.1 µM; in assay [5] it was 0.1 to 1 µM; in assay [6], 0.1 to 1 µM; in assay [7] it was 0.1 to 1 µM. For the same compound, the IC50 in assay [2] lay in the range of 0.1 to 1 µM. Moreover, the DC50 in assay [3] was no more than 0.1 µM.
As to `C[C@@H]1CN(c2ccc3c(c2)CN(C2CCC(=O)NC2=O)C3=O)C(=O)N1c1ccc(C2CC2)nc1` (stereo partly drawn) [Compound 137, 3-(5-((R)-3-(6-cyclopropylpyridin-3-yl)-4-methyl-2-oxoimidazolidin-1-yl)-1-oxoisoindolin-2-yl)piperidine-2,6-dione], the concentration for 50% growth inhibition (GI50) in assay [1] is 0.1 to 1 µM; in assay [4], 0.1 to 1 µM; in assay [5] it was 0.1 to 1 µM; in assay [6], greater than 1 µM; in assay [7], greater than 1 µM. Besides, the IC50 in assay [2] fell in the range of 0.1 to 1 µM. This compound also came in with a DC50 in assay [3] of no more than 0.1 µM.
Regarding `O=C1CCC(N2Cc3cc(N4CCN(c5cccc6nc[nH]c56)C4=O)ccc3C2=O)C(=O)N1` (centres unmarked) [Compound 175, 3-(5-(3-(1H-benzo[d]imidazol-7-yl)-2-oxoimidazolidin-1-yl)-1-oxoisoindolin-2-yl) piperidine-2,6-dione], the IC50 in assay [2] was greater than 1 µM. For the same compound, in assay [3], the DC50 was greater than 1 µM.
With `CN1CC(c2ccc(N3CCN(c4ccc5c(c4)CN(C4CCC(=O)NC4=O)C5=O)C3=O)cc2)C1` (centres unmarked) [Compound 176, 3-(5-(3-(4-(1-methylazetidin-3-yl)phenyl)-2-oxoimidazolidin-1-yl)-1-oxoisoindolin-2-yl)piperidine-2,6-dione], the IC50 in assay [2] is no more than 0.1 µM. In assay [3], the DC50 is greater than 1 µM.
As for `CN1CCCC1c1ccc(N2CCN(c3ccc4c(c3)CN(C3CCC(=O)NC3=O)C4=O)C2=O)cc1` (centres unmarked) [Compound 177, 3-(5-(3-(4-(1-methylpyrrolidin-2-yl)phenyl)-2-oxoimidazolidin-1-yl)-1-oxoisoindolin-2-yl)piperidine-2,6-dione], the IC50 in assay [2] lay in the range of 0.1 to 1 µM. Also, the DC50 in assay [3] is greater than 1 µM.
The matching figures for `O=C1CCC(N2Cc3cc(N4CCN(C5COC5)C4=O)ccc3C2=O)C(=O)N1` (centres unmarked) [Compound 178, 3-(5-(3-(oxetan-3-yl)-2-oxoimidazolidin-1-yl)-1-oxoisoindolin-2-yl)piperidine-2,6-dione]: 0.1 to 1 µM and greater than 1 µM.
The matching figures for `O=C1CCC(N2Cc3cc(N4CCN(C(c5ccccc5)C(F)(F)F)C4=O)ccc3C2=O)C(=O)N1` (centres unmarked) [Compound 179, 3-(1-oxo-5-(2-oxo-3-(2,2,2-trifluoro-1-phenylethyl)imidazolidin-1-yl)isoindolin-2-yl)piperidine-2,6-dione]: 0.1 to 1 µM and greater than 1 µM.
In the case of `C[C@@H]1CN(c2ccc3c(c2)CN(C2CCC(=O)NC2=O)C3=O)C(=O)N1c1ccncn1` (stereo partly drawn) [Compound 180, 3-(5-((R)-4-methyl-2-oxo-3-(pyrimidin-4-yl)imidazolidin-1-yl)-1-oxoisoindolin-2-yl)piperidine-2,6-dione], the IC50 in assay [2] was greater than 1 µM. Moreover, the DC50 in assay [3] was greater than 1 µM.
For `CC(C)C(=O)c1ccc(N2CCN(c3ccc4c(c3)CN(C3CCC(=O)NC3=O)C4=O)C2=O)cc1` (centres unmarked) [Compound 181, 3-(5-(3-(4-isobutyrylphenyl)-2-oxoimidazolidin-1-yl)-1-oxoisoindolin-2-yl)piperidine-2,6-dione], in assay [2], the IC50 was no more than 0.1 µM. In assay [3], this compound showed a DC50 greater than 1 µM.
As to `C[C@@H]1CN(c2ccc3c(c2)CN(C2CCC(=O)NC2=O)C3=O)C(=O)N1c1ncccn1` (stereo partly drawn) [Compound 182, 3-(5-((R)-4-methyl-2-oxo-3-(pyrimidin-2-yl)imidazolidin-1-yl)-1-oxoisoindolin-2-yl)piperidine-2,6-dione], in assay [2], the IC50 fell in the range of 0.1 to 1 µM. The compound further showed a DC50 in assay [3] greater than 1 µM.
For `O=C1CCC(N2Cc3cc(N4CCN(C5CCOCC5)C4=O)ccc3C2=O)C(=O)N1` (centres unmarked) [Compound 183, 3-(1-oxo-5-(2-oxo-3-(tetrahydro-2H-pyran-4-yl)imidazolidin-1-yl)isoindolin-2-yl)piperidine-2,6-dione], in assay [2], the IC50 was in the range of 0.1 to 1 µM. The compound further came in with a DC50 in assay [3] greater than 1 µM.
As for `O=C1CCC(N2Cc3cc(N4CCN(C5CN(c6ccccn6)C5)C4=O)ccc3C2=O)C(=O)N1` (centres unmarked) [Compound 184, 3-(1-oxo-5-(2-oxo-3-(1-(pyridin-2-yl)azetidin-3-yl)imidazolidin-1-yl)isoindolin-2-yl)piperidine-2,6-dione], the IC50 in assay [2] lay in the range of 0.1 to 1 µM. In assay [3], the DC50 was greater than 1 µM.

The values above are taken from US20250115581A1, “SUBSTITUTED PIPERIDINES AS CK1A DEGRADERS” (Monte Rosa Therapeutics, Inc., priority 2022, published 2025).
